Experimental data taken from patent US11427548B2 (Arvinas Operations, Inc., priority 2015, dated 2022).
Read-outs that look alike come from different tables or passages of the source. Values belong to the compound of their own block, whether it stands above or below them.

Target: T1, Androgen Receptor (Homo sapiens, UniProt P10275)
T1 construct: endogenous in cells; host or cells: VCaP cells
T1 sequence (P10275 1-920): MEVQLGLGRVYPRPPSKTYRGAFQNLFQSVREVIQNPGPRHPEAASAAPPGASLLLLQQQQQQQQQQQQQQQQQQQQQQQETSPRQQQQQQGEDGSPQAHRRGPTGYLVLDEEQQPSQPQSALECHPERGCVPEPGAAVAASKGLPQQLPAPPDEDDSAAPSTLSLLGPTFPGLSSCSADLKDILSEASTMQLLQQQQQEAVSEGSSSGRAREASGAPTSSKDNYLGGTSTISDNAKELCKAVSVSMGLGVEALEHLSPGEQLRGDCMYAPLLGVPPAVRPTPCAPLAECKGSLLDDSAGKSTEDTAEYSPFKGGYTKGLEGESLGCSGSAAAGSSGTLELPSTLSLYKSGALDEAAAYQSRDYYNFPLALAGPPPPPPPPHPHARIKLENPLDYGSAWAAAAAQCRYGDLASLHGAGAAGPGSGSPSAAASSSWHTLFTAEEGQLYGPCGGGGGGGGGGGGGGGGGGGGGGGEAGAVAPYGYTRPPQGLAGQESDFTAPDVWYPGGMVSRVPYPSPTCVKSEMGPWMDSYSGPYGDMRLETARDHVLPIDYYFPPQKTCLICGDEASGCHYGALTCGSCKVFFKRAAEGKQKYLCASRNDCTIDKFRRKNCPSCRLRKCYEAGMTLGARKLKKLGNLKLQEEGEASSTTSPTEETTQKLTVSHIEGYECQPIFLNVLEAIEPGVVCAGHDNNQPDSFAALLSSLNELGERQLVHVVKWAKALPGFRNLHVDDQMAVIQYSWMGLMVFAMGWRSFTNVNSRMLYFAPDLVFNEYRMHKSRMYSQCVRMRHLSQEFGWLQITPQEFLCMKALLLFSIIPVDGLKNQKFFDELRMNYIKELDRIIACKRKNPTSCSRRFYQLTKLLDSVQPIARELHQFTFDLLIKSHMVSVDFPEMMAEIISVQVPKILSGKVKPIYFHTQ
Experiment: Androgen Receptor ELISA assay (PathScan AR ELISA) in VCaP cells: AR degradation, Dmax and DC50
Format: cell-based
How it was run: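 VCaP cells, 30,000/well, grown ≥3 days in phenol red-free RPMI with 5% charcoal-stripped FBS; compound added in 0.1% DMSO with 0.1 nM R1881, 7 half-log doses, 24 h. Lysate AR quantified by PathScan sandwich ELISA, HRP/TMB read at 450 nm, giving DC50 and Dmax.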

[1] = VCaP cells; Table 36; read-out: VCaP DC50
[2] = VCaP, VCaP cells; Table 36; read-out: VCaP Dmax (%)
[3] = VCaP, read-out: VCaP Dmax (%), VCaP cells; Table 36
[4] = read-out: VCaP DC50; concentration that caused 50% Androgen Receptor degradation, VCaP cells (Table 32)
[5] = VCaP cells; Table 35; read-out: VCaP DC50
[6] = VCaP, VCaP cells; Table 35; read-out: VCaP Dmax (%)

DC50 [1]: 51 to 500 nM
Dmax [3]: 26 to 50%
SMILES: CC(NC(=O)C1CC(O)CN1C(=O)C(NC(=O)COCCN1CC2CC1CN2c1ccc(C(=O)NC2C(C)(C)C(Oc3ccc(C#N)c(Cl)c3)C2(C)C)cn1)C(C)(C)C)c1ccc(-c2scnc2CO)cc1 [Example 668, N-((1r,3R)-3-(3-chloro-4-cyanophenoxy)-2,2,4,4-tetramethylcyclobutyl)-6-((1R,4R)-5-(2-(2-(((S)-1-((2S,4R)-4-hydroxy-2-(((S)-1-(4-(4-(hydroxymethyl)thiazol-5-yl)phenyl)ethyl)carbam-oyl)pyrrolidin-1-yl)-3,3-dimethyl-1-oxobutan-2-yl)amino)-2-oxoethoxy)ethyl)-2,5-diazabicyclo[2.2.1]hept-an-2-yl)nicotinamide]

DC50 (VCaP cells; Table 34; read-out: VCaP DC50): < 50 nM
Dmax (VCaP, VCaP cells; Table 34; read-out: VCaP Dmax (%)): 26 to 50%
SMILES: Cc1ncsc1-c1ccc(CNC(=O)[C@@H]2C[C@@H](O)CN2C(=O)[C@@H](NC(=O)COCCCCNC(=O)c2ccc(C(=O)N[C@H]3C(C)(C)[C@H](Oc4ccc(C#N)c(Cl)c4)C3(C)C)cc2)C(C)(C)C)cc1 [Example 398]

DC50 [5]: < 50 nM
Dmax [6]: 51 to 70%
SMILES: CC(C)(C)[C@H](NC(=O)COCCCCCNc1ccc(C(=O)N[C@H]2C(C)(C)[C@H](Oc3ccc(C#N)c(Cl)c3)C2(C)C)cc1)C(=O)N1C[C@H](O)C[C@H]1C(=O)NCc1ccc(-n2ccnn2)cc1 [Example 526]

DC50 [5]: < 50 nM
Dmax [6]: > 71%
SMILES: Cc1ncsc1-c1ccc(CNC(=O)[C@@H]2C[C@@H](O)CN2C(=O)[C@@H](NC(=O)COC[C@H](O)[C@@H](O)COc2ccc(C(=O)N[C@H]3C(C)(C)[C@H](Oc4ccc(C#N)c(Cl)c4)C3(C)C)cc2)C(C)(C)C)cc1 [Example 577]

Dmax (VCaP, highest percentage of Androgen Receptor degradation observed, VCaP cells (Table 32); read-out: VCaP Dmax (%)): 51 to 70%
DC50 (concentration that caused 50% Androgen Receptor degradation, VCaP cells (Table 32); read-out: VCaP DC50): < 50 nM
SMILES: Cc1ncoc1-c1ccc(CNC(=O)[C@@H]2C[C@@H](O)CN2C(=O)[C@@H](NC(=O)CNCCCCCOc2ccc(C(=O)N[C@H]3C(C)(C)[C@H](Oc4ccc(C#N)c(Cl)c4)C3(C)C)cc2)C(C)(C)C)cc1 [Example 189, (2S,4R)-1-[(2S)-3,3-dimethyl-2-(2-{[5-(4-{[trans-3-(3-chloro-4-cyanophenoxy)-2,2,4,4-tetramethylcyclobutyl]carbamoyl}phenoxy)pentyl]amino}acetamido)butanoyl]-4-hydroxy-N-{[4-(4-methyl-1,3-oxazol-5-yl)phenyl]methyl)pyrrolidine-2-carboxamide]

More lines, now with the values behind:

SMILES: Cc1ncsc1-c1ccc([C@H](C)NC(=O)[C@@H]2C[C@@H](O)CN2C(=O)[C@@H](NC(=O)CCCCN2CCN(c3ccc(C(=O)N[C@H]4C(C)(C)[C@H](Oc5ccc(C#N)c(Cl)c5)C4(C)C)cn3)CC2)C(C)(C)C)cc1 [Example 779, N-((1r,3r)-3-(3-chloro-4-cyanophenoxy)-2,2,4,4-tetramethylcyclobutyl)-6-(4-(5-(((S)-1-((2S,4R)-4-hydroxy-2-(((S)-1-(4-(4-methylthiazol-5-yl)phenyl)ethyl)carbamoyl)pyrrolidin-1-yl)-3,3-dimethyl-1-oxobutan-2-yl)amino)-5-oxopentyl)piperazin-1-yl)nicotinamide]
DC50 [1]: > 501 nM
Dmax [2]: < 25%

SMILES: COc1cc(OCCCCOCC(=O)N[C@H](C(=O)N2C[C@H](O)C[C@H]2C(=O)NCc2ccc(-c3scnc3C)cc2)C(C)(C)C)ccc1-c1ccc(N2C(=S)N(c3ccc(C#N)c(C(F)(F)F)c3)C(=O)C2(C)C)cc1 [Example 140, (2S,4R)-1-[(2S)-2-(2-{4-[4-(4-{3-[4-cyano-3-(trifluoromethyl)phenyl]-5,5-dimethyl-4-oxo-2-sulfanylideneimidazolidin-1-yl}phenyl)-3-methoxyphenoxy]butoxy}acetamido)-3,3-dimethylbutanoyl]-4-hydroxy-N-{[4-(4-methyl-1,3-thiazol-5-yl)phenyl]methyl}pyrrolidine-2-carboxamide]
Dmax (VCaP, read-out: VCaP Dmax (%)): > 71%
DC50 [4]: < 50 nM

SMILES: Cc1ncsc1-c1ccc([C@H](C)NC(=O)[C@@H]2C[C@@H](O)CN2C(=O)[C@@H](NC(=O)CN2CCN(CCCc3ccc(C(=O)N[C@H]4C(C)(C)[C@H](Oc5ccc(C#N)c(C(F)(F)F)c5)C4(C)C)cc3)CC2)C(C)(C)C)cc1 [Example 665, (2S,4R)-1-((S)-2-(2-(4-(3-(4-(((1r,3r)-3-(4-cyano-3-(trifluoromethyl)phenoxy)-2,2,4,4-tetramethylcyclobutyl)carbamoyl)phenyl)propyl)piperazin-1-yl)acetamido)-3,3-dimethylbutanoyl)-4-hydroxy-N-((S)-1-(4-(4-methylthiazol-5-yl)phenyl)ethyl)pyrrolidine-2-carboxamide]
DC50 [1]: < 50 nM
Dmax [2]: 51 to 70%

SMILES: Cc1ncsc1-c1ccc([C@H](C)NC(=O)[C@@H]2C[C@@H](O)CN2C(=O)[C@@H](C(C)C)n2cc(OCCCOCCC(O)CCOc3ccc(N4C(=S)N(c5ccc(C#N)c(C(F)(F)F)c5)C(=O)C4(C)C)cc3)cn2)cc1 (stereo partly shown) [Example 418]
Dmax (VCaP, read-out: VCaP Dmax (%)): 51 to 70%
DC50 (read-out: VCaP DC50; VCaP cells; Table 35): < 50 nM

SMILES: Cc1ncsc1-c1ccc(CNC(=O)[C@@H]2C[C@@H](O)CN2C(=O)[C@@H](C(C)C)N2Cc3ccc(N4CCN(CCCc5ccc(C(=O)N[C@H]6C(C)(C)[C@H](Oc7ccc(C#N)c(C(F)(F)F)c7)C6(C)C)cc5)CC4)cc3C2=O)cc1 [Example 761, (2S,4R)-1-((R)-2-(6-(4-(3-(4-(((1r,3r)-3-(4-cyano-3-(trifluoromethyl)phenxoy)-2,2,4,4-tetramethylcyclobutyl)carbamoyl)phenyl)propyl)piperazin-1-yl)-1-oxoisoindolin-2-yl)-3-methylbutanoyl)-4-hydroxy-N-(4-(4-methylthiazol-5-yl)benzyl)pyrrolidine-2-carboxamide]
DC50 [1]: > 501 nM
Dmax [3]: < 25%

SMILES: CC(C)(C)[C@H](NC(=O)COCCCCOc1ccc(-c2ccc(N3C(=S)N(c4ccc(C#N)c(Cl)c4)C(=O)C3(C)C)c(F)c2)cc1)C(=O)N1C[C@H](O)C[C@H]1C(=O)NCc1ccc(-c2cncs2)cc1 [Example 108, (2S,4R)-1-[(2S)-2-{2-[4-(4-{4-[3-(3-chloro-4-cyanophenyl)-5,5-dimethyl-4-oxo-2-sulfanylideneimidazolidin-1-yl]-3-fluorophenyl}phen-oxy)butoxy]acetamido}-3,3-dimethylbutanoyl]-4-hydroxy-N-{[4-(1,3-thiazol-5-yl)phenyl]methyl}pyrrolidine-2-carboxamide]
Dmax (VCaP, read-out: VCaP Dmax (%)): > 71%
DC50 [4]: < 50 nM

SMILES: Cc1ncsc1-c1ccc(CNC(=O)[C@@H]2C[C@@H](O)CN2C(=O)[C@@H](NC(=O)COCCNc2ccc(-c3ccc(C(=O)N[C@H]4C(C)(C)[C@H](Oc5ccc(C#N)c(Cl)c5)C4(C)C)cc3)cn2)C(C)(C)C)nc1 [Example 446]
DC50 [5]: > 501 nM
Dmax [6]: 26 to 50%

SMILES: Cc1ncsc1-c1ccc(CNC(=O)[C@@H]2C[C@@H](O)CN2C(=O)[C@@H](NC(=O)COCCCOCCCCOc2ccc(N3C(=S)N(c4ccc(C#N)c(C(F)(F)F)c4)C(=O)C3(C)C)cn2)C(C)(C)C)cc1 [Example 40, (2S,4R)-1-[(2S)-2-[2-(3-{4-[(5-{3-[4-cyano-3-(trifluoromethyl)phenyl]-5,5-dimethyl-4-oxo-2-sulfanylideneimidazolidin-1-yl}pyridin-2-yl)oxy]butoxy}propoxy)acetamido]-3,3-dimethylbutanoyl]-4-hydroxy-N-{[4-(4-methyl-1,3-thiazol-5-yl)phenyl]methyl}pyrrolidine-2-carboxamide]
Dmax (VCaP, read-out: VCaP Dmax (%)): 51 to 70%
DC50 (read-out: VCaP DC50; concentration that caused 50% Androgen Receptor degradation, VCaP cells): < 50 nM

SMILES: C[C@H](NC(=O)[C@@H]1C[C@@H](O)CN1C(=O)[C@@H](NC(=O)COCCN1CCN(c2ccc(C(=O)N[C@H]3C(C)(C)[C@H](Oc4ccc(C#N)c(Cl)c4)C3(C)C)cn2)CC1)C(C)(C)C)c1ccc(-c2scnc2CO)cc1 [Example 673, N-((1r,3r)-3-(3-chloro-4-cyanophenoxy)-2,2,4,4-tetramethylcyclobutyl)-6-(4-(2-(2-(((S)-1-((2S,4R)-4-hydroxy-2-(((S)-1-(4-(4-(hydroxymethyl)thiazol-5-yl)phenyl)ethyl)carbam-oyl)pyrrolidin-1-yl)-3,3-dimethyl-1-oxobutan-2-yl)amino)-2-oxoethoxy)ethyl)pipera-zin-1-yl)nicotinamide]
DC50 [1]: < 50 nM
Dmax [2]: > 71%
